Experiments:
blackgrass = test: Test D postemergence; format: in vivo, Alopecurus myosuroides; settings: Alopecurus myosuroides, post-emergence, Postemergence, scale 0 to 100 (0 no effect, 100 complete control), read-out: Plant response rating, Blackgrass
Excerpt: (§1) Seeds of plant species selected from bluegrass (annual bluegrass, Poa annua), blackgrass (Alopecurus myosuroides), canarygrass (littleseed canarygrass, Phalaris minor), chickweed (common chickweed, Stellaria media), galium (catchweed bedstraw, Galium aparine), bromegrass, downy (downy bromegrass, Bromus tectorum), field poppy (Papaver rhoeas), field violet (Viola arvensis), green foxtail (Setaria viridis), deadnettle (henbit deadnettle, Lamium amplexicaule), Italian ryegrass (Lolium multiflorum), kochia (Kochia scoparia), lambsquarters (Chenopodium album), oilseed rape (Brassica napus), pigweed (Amaranthus retroflexus), chamomile (scentless chamomile, Matricaria inodora), Russian thistle (Salsola kali), speedwell (bird's-eye speedwell, Veronica persica), spring barley (Hordeum vulgare), spring wheat (Triticum aestivum), wild buckwheat (Polygonum convolvulus), wild mustard (Sinapis arvensis), wild oat (Avena fatua), wild radish (Raphanus raphanistrum), windgrass (Apera spica-venti), winter barley (Hordeum vulgare), and winter wheat (Triticum aestivum) were planted into a silt loam soil and treated preemergence with test chemicals formulated in a non-phytotoxic solvent mixture which included a surfactant.
(§2) At the same time, these species were planted in pots containing Redi-Earth® planting medium (Scotts Company, 14111 Scottslawn Road, Marysville, Ohio 43041) comprising spaghnum peat moss, vermiculite, wetting agent and starter nutrients and treated with postemergence applications of the test chemicals formulated in the same manner. Plants ranged in height from 2 to 18 cm (1- to 4-leaf stage). Treated plants and controls were maintained in a controlled growth environment for 7 to 21 days after which time all species were compared to controls and visually evaluated. Plant response ratings, summarized in Table D, are based on a scale of 0 to 100 where 0 is no effect and 100 is complete control. A dash (-) response means no test result.

field poppy = test: Test D postemergence; format: in vivo, Papaver rhoeas; settings: Papaver rhoeas, post-emergence, scale 0 to 100 (0 no effect, 100 complete control), read-out: Plant response rating, Field Poppy
Excerpt: as §1, §2

bluegrass = test: Test D preemergence; format: in vivo, Poa annua; settings: Poa annua, pre-emergence, scale 0-100, read-out: Plant response rating, Bluegrass
Excerpt: as §1, §2

wild mustard = test: Test D preemergence; format: in vivo, Sinapis arvensis; settings: Brassica, pre-emergence, scale 0-100, read-out: Plant response rating, Mustard, Wild
Excerpt: as §1, §2

pigweed = test: Test D postemergence; format: in vivo, Amaranthus retroflexus; settings: Amaranthus retroflexus, post-emergence, scale 0 to 100 (0 no effect, 100 complete control), read-out: Plant response rating, Pigweed
Excerpt: as §1, §2

green foxtail = test: Test D postemergence; format: in vivo, Setaria viridis; settings: Setaria viridis, post-emergence, scale 0 to 100 (0 no effect, 100 complete control), read-out: Plant response rating, Foxtail, Green
Excerpt: as §1, §2

field violet = test: Test D postemergence; format: in vivo, Viola arvensis; settings: Viola arvensis, post-emergence, scale 0 to 100 (0 no effect, 100 complete control), read-out: Plant response rating, Field Violet
Excerpt: as §1, §2

canarygrass = test: Test D postemergence; format: in vivo, Phalaris minor; settings: Phalaris minor, post-emergence, scale 0 to 100 (0 no effect, 100 complete control), read-out: Plant response rating, Canarygrass
Excerpt: as §1, §2

galium = test: Test D postemergence; format: in vivo, Galium aparine; settings: Galium, post-emergence, scale 0 to 100 (0 no effect, 100 complete control), read-out: Plant response rating, Galium
Excerpt: as §1, §2

spring barley = test: Test D postemergence; format: in vivo, Hordeum vulgare; settings: Hordeum vulgare, post-emergence, Postemergence, scale 0 to 100 (0 no effect, 100 complete control), read-out: Plant response rating, Barley, Spring
Excerpt: as §1, §2

winter barley = test: Test D postemergence; format: in vivo, Hordeum vulgare; settings: Hordeum vulgare, post-emergence, Postemergence, scale 0 to 100 (0 no effect, 100 complete control), read-out: Plant response rating, Barley, Winter
Excerpt: as §1, §2

wild buckwheat = test: Test D postemergence; format: in vivo, Polygonum convolvulus; settings: Fallopia convolvulus, post-emergence, Postemergence, scale 0 to 100 (0 no effect, 100 complete control), read-out: Plant response rating, Buckwheat, Wild
Excerpt: as §1, §2

## N#Cc1cccc(Oc2ncc(Cl)cn2)c1-n1cc(Br)cn1 [Compound 52, 2-(4-bromo-1H-pyrazol-1-yl)-3-[(5-chloro-2-pyrimidinyl)oxy]benzonitrile]
blackgrass; 62 g ai/ha
  pest or weed control at 62 g/ha: 30%
blackgrass; 31 g ai/ha
  pest or weed control at 31 g/ha: 30%
blackgrass; 125 g ai/ha
  pest or weed control at 125 g/ha: 40%
blackgrass; 250 g ai/ha
  pest or weed control at 250 g/ha: 65%
Field poppy; 31 g ai/ha
  pest or weed control at 31 g/ha: 60%
Field poppy; 62 g ai/ha
  pest or weed control at 62 g/ha: 75%
Field poppy; 125 g ai/ha
  pest or weed control at 125 g/ha: 80%
Field poppy; 250 g ai/ha
  pest or weed control at 250 g/ha: 100%
bluegrass; 31 g ai/ha
  pest or weed control at 31 g/ha: 0%
bluegrass; 62 g ai/ha
  pest or weed control at 62 g/ha: 0%
bluegrass; 125 g ai/ha
  pest or weed control at 125 g/ha: 10%
bluegrass; 250 g ai/ha
  pest or weed control at 250 g/ha: 60%
Wild mustard; 31 g ai/ha
  pest or weed control at 31 g/ha: 20%
Wild mustard; 62 g ai/ha
  pest or weed control at 62 g/ha: 55%
Wild mustard; 125 g ai/ha
  pest or weed control at 125 g/ha: 90%
Wild mustard; 250 g ai/ha
  pest or weed control at 250 g/ha: 100%
pigweed; 31 g ai/ha
  pest or weed control at 31 g/ha: 80%
pigweed; 62 g ai/ha
  pest or weed control at 62 g/ha: 85%
pigweed; 125 g ai/ha
  pest or weed control at 125 g/ha: 85%
pigweed; 250 g ai/ha
  pest or weed control at 250 g/ha: 95%
Green foxtail; 31 g ai/ha
  pest or weed control at 31 g/ha: 15%
Green foxtail; 62 g ai/ha
  pest or weed control at 62 g/ha: 20%
Green foxtail; 125 g ai/ha
  pest or weed control at 125 g/ha: 40%
Green foxtail; 250 g ai/ha
  pest or weed control at 250 g/ha: 75%
Field violet; 31 g ai/ha
  pest or weed control at 31 g/ha: 100%
Field violet; 62 g ai/ha
  pest or weed control at 62 g/ha: 100%
Field violet; 125 g ai/ha
  pest or weed control at 125 g/ha: 100%
Field violet; 250 g ai/ha
  pest or weed control at 250 g/ha: 100%
canarygrass; 31 g ai/ha
  pest or weed control at 31 g/ha: 35%
canarygrass; 62 g ai/ha
  pest or weed control at 62 g/ha: 35%
canarygrass; 125 g ai/ha
  pest or weed control at 125 g/ha: 50%
canarygrass; 250 g ai/ha
  pest or weed control at 250 g/ha: 60%
galium; 31 g ai/ha
  pest or weed control at 31 g/ha: 70%
galium; 62 g ai/ha
  pest or weed control at 62 g/ha: 80%
galium; 125 g ai/ha
  pest or weed control at 125 g/ha: 95%
galium; 250 g ai/ha
  pest or weed control at 250 g/ha: 100%
Spring barley; 31 g ai/ha
  plant injury at 31 g/ha: 10%
Spring barley; 62 g ai/ha
  plant injury at 62 g/ha: 15%
Spring barley; 125 g ai/ha
  plant injury at 125 g/ha: 15%
Spring barley; 250 g ai/ha
  plant injury at 250 g/ha: 20%
Winter barley; 31 g ai/ha
  plant injury at 31 g/ha: 10%
Winter barley; 62 g ai/ha
  plant injury at 62 g/ha: 10%
Winter barley; 125 g ai/ha
  plant injury at 125 g/ha: 15%
Winter barley; 250 g ai/ha
  plant injury at 250 g/ha: 20%
Wild buckwheat; 31 g ai/ha
  pest or weed control at 31 g/ha: 80%
Wild buckwheat; 62 g ai/ha
  pest or weed control at 62 g/ha: 95%
Wild buckwheat; 125 g ai/ha
  pest or weed control at 125 g/ha: 100%
Wild buckwheat; 250 g ai/ha
  pest or weed control at 250 g/ha: 100%
